These results are taken from article PMC8001353, “Tryptophanol-Derived Oxazolopyrrolidone Lactams as Potential Anticancer Agents against Gastric Adenocarcinoma” (Pharmaceuticals, 2021).

This assay deals with human gastric adenocarcinoma (AGS) cell line. Nature of the assay: MTT reduction assay, cell viability / cytotoxicity in AGS cell line. It counts as cell-based. The following applies: AGS cell line, cell viability, MTT, 48 h incubation, mean ± SD; for viability at 50 µM: Homo sapiens, read-out: % CV at 50 µM. How it is done: The cytotoxicity was assessed in different cell lines with the endpoint MTT, using previously reported procedure. The following cells were obtained from the American Type Culture Collection: human embryonic kidney epithelial cell line (HEK 293T, ATCC HBT-22™), breast cancer cell line (MDA-MB-231, ATCC HTB-26™), osteosarcoma cell line (MG-63, ATCC CRL-1427™), gastric adenocarcinoma cell line (AGS, ATTC CRL-1739TM), prostate cancer cell line (DU-145, ATTC HTB-81™), and lung carcinoma cell line (A-549, ATCC CCL-185™). All cell lines were seeded at 2 × 10^4 cells/well with exception of A-549 cell line, which was seeded at 5 × 10^3 cells/well.
(In general: Tetrazolium assays rely on reduction of a dye to a coloured formazan, in cell work by metabolically active cells.)

Regarding `CCn1cc(C[C@@H]2CO[C@@]3(c4ccc(Cl)cc4)CCC(=O)N23)c2ccccc21` [Compound 7k, (3R,7aR)-7a-(4-chlorophenyl)-3-((1-ethyl-1H-indol-3-yl)methyl)tetrahydropyrrolo[2,1-b]oxazol-5(6H)-one], the viability at 50 µM was 40 ± 5%. For `O=C1CC[C@]2(c3ccc(-c4ccc(O)cc4)cc3)OC[C@@H](Cc3c[nH]c4ccccc34)N12` [Compound 7p, (3R,7aR)-3-((1H-indol-3-yl)methyl)-7a-(4’-hydroxy-[1,1’-biphenyl]-4-yl)tetrahydropyrrolo[2,1-b]oxazol-5(6H)-one], the viability at 50 µM amounted to 56 ± 1%. Take `CC(C)(C)OC(=O)n1cc(C[C@@H]2CO[C@@]3(c4ccc(Cl)cc4)CCC(=O)N23)c2ccccc21` [Compound 7m, tert-butyl 3-(((3R,7aR)-7a-(4-chlorophenyl)-5-oxohexahydropyrrolo[2,1-b]oxazol-3-yl)methyl)-1H-indole-1-carboxylate]: the viability at 50 µM stood at 61 ± 9%. Take `O=C1CC[C@]2(c3ccc(Br)cc3)OC[C@@H](Cc3c[nH]c4ccccc34)N12` [Compound 7d, (3R,7aR)-3-((1H-indol-3-yl)methyl)-7a-(4-bromophenyl)tetrahydropyrrolo[2,1-b]oxazol-5(6H)-one]: the “% CV at 100 µM” value is listed as 14 ± 3%. `O=C1CC[C@]2(c3ccc(-c4ccc(Cl)cc4)cc3)OC[C@@H](Cc3c[nH]c4ccccc34)N12` [Compound 7n, (3R,7aR)-3-((1H-indol-3-yl)methyl)-7a-(4’-chloro-[1,1’-biphenyl]-4-yl)tetrahydropyrrolo[2,1-b]oxazol-5(6H)-one]: the viability at 50 µM came to 65 ± 13%.

In the case of `COc1ccc([C@]23CCC(=O)N2[C@H](Cc2c[nH]c4ccccc24)CO3)cc1F` [Compound 7i, (3R,7aR)-3-((1H-indol-3-yl)methyl)-7a-(3-fluoro-4-methoxyphenyl)tetrahydropyrrolo[2,1-b]oxazol-5(6H)-one], the viability at 50 µM came to 84 ± 7%.

With `O=C1CC[C@@]2(c3ccc(Cl)cc3)OC[C@H](Cc3c[nH]c4ccccc34)N12` [Compound 8c, (3S,7aS)-3-((1H-indol-3-yl)methyl)-7a-(4-chlorophenyl)tetrahydropyrrolo[2,1-b]oxazol-5(6H)-one], the “% CV at 100 µM” value was found to be 11 ± 1%. For the compound `O=C1CC[C@@]2(c3ccccc3)OC[C@H](Cc3c[nH]c4ccccc34)N12` [Compound 8a, (3S,7aS)-3-((1H-indol-3-yl)methyl)-7a-phenyltetrahydropyrrolo[2,1-b]oxazol-5(6H)-one], the “% CV at 100 µM” value was 58 ± 4%. Regarding `O=C1CC[C@]2(c3ccc(Cl)cc3)OC[C@@H](Cc3c[nH]c4ccccc34)N12` [Compound 7c, (3R,7aR)-3-((1H-indol-3-yl)methyl)-7a-(4-chlorophenyl)tetrahydropyrrolo[2,1-b]oxazol-5(6H)-one], the “% CV at 100 µM” value worked out at 6 ± 1% and the viability at 50 µM was determined as 11 ± 1%.

For `O=C1CC[C@]2(c3ccc(F)cc3)OC[C@@H](Cc3c[nH]c4ccccc34)N12` [Compound 7b, (3R,7aR)-3-((1H-indol-3-yl)methyl)-7a-(4-fluorophenyl)tetrahydropyrrolo[2,1-b]oxazol-5(6H)-one], the “% CV at 100 µM” value is reported as 50 ± 8%. Consider `O=C1CC[C@]2(c3ccc(-c4cccc(Cl)c4)cc3)OC[C@@H](Cc3c[nH]c4ccccc34)N12` [Compound 7r, (3R,7aR)-3-((1H-indol-3-yl)methyl)-7a-(3’-chloro-[1,1’-biphenyl]-4-yl)tetrahydropyrrolo[2,1-b]oxazol-5(6H)-one], for which the viability at 50 µM came out at 17 ± 1%. For the compound `O=C1CC[C@@]2(c3ccc(F)cc3)OC[C@H](Cc3c[nH]c4ccccc34)N12` [Compound 8b, (3S,7aS)-3-((1H-indol-3-yl)methyl)-7a-(4-fluorophenyl)tetrahydropyrrolo[2,1-b]oxazol-5(6H)-one], the “% CV at 100 µM” value came to 22 ± 4%. With `Cc1ccc([C@]23CCC(=O)N2[C@H](Cc2c[nH]c4ccccc24)CO3)cc1Cl` [Compound 7h, (3R,7aR)-3-((1H-indol-3-yl)methyl)-7a-(3-chloro-4-methylphenyl)tetrahydropyrrolo[2,1-b]oxazol-5(6H)-one], the viability at 50 µM amounted to 11 ± 2%.

Regarding `COc1ccc([C@]23CCC(=O)N2[C@H](Cc2c[nH]c4ccccc24)CO3)cc1` [Compound 7f, (3R,7aR)-3-((1H-indol-3-yl)methyl)-7a-(4-methoxyphenyl)tetrahydropyrrolo[2,1-b]oxazol-5(6H)-one], the “% CV at 100 µM” value was found to be 18 ± 2%. Consider `O=C1CC[C@]2(c3ccc(-c4ccc5c(c4)OCCO5)cc3)OC[C@@H](Cc3c[nH]c4ccccc34)N12` [Compound 7u, (3R,7aR)-3-((1H-indol-3-yl)methyl)-7a-(4-(2,3-dihydrobenzo[b][1, 4]dioxin-6-yl)phenyl)tetrahydropyrrolo[2,1-b]oxazol-5(6H)-one], for which the viability at 50 µM came out at 67 ± 6%. As to `O=C1CC[C@]2(c3ccccc3)OC[C@@H](Cc3c[nH]c4ccccc34)N12` [Compound 7a, (3R,7aR)-3-((1H-indol-3-yl)methyl)-7a-phenyltetrahydropyrrolo[2,1-b]oxazol-5(6H)-one], the “% CV at 100 µM” value worked out at 50 ± 5%. In the case of `CS(=O)(=O)c1ccc([C@@]23CCC(=O)N2[C@@H](Cc2c[nH]c4ccccc24)CO3)cc1` [Compound 8g, (3S,7aS)-3-((1H-indol-3-yl)methyl)-7a-(4-(methylsulfonyl)phenyl)tetrahydropyrrolo[2,1-b]oxazol-5(6H)-one], the “% CV at 100 µM” value is recorded as 91 ± 11%.

Consider `O=C1CC[C@@]2(c3ccc(Br)cc3)OC[C@H](Cc3c[nH]c4ccccc34)N12` [Compound 8d, (3S,7aS)-3-((1H-indol-3-yl)methyl)-7a-(4-bromophenyl)tetrahydropyrrolo[2,1-b]oxazol-5(6H)-one], for which the “% CV at 100 µM” value is 25 ± 4%.

With `O=C1CC[C@]2(c3ccc(-c4ccncc4)cc3)OC[C@@H](Cc3c[nH]c4ccccc34)N12` [Compound 7t, (3R,7aR)-3-((1H-indol-3-yl)methyl)-7a-(4-(pyridin-4-yl)phenyl)tetrahydropyrrolo[2,1-b]oxazol-5(6H)-one], the viability at 50 µM came to 75 ± 14%.

Consider `CS(=O)(=O)c1ccc([C@]23CCC(=O)N2[C@H](Cc2c[nH]c4ccccc24)CO3)cc1` [Compound 7g, (3R,7aR)-3-((1H-indol-3-yl)methyl)-7a-(4-(methylsulfonyl)phenyl)tetrahydropyrrolo[2,1-b]oxazol-5(6H)-one], for which the “% CV at 100 µM” value was 94 ± 12%. For `CC(=O)n1cc(C[C@@H]2CO[C@@]3(c4ccc(Cl)cc4)CCC(=O)N23)c2ccccc21` [Compound 7l, (3R,7aR)-3-((1-acetyl-1H-indol-3-yl)methyl)-7a-(4-chlorophenyl)tetrahydropyrrolo[2,1-b]oxazol-5(6H)-one], the viability at 50 µM came to 63 ± 13%. Take `Cc1ccc([C@]23CCC(=O)N2[C@H](Cc2c[nH]c4ccccc24)CO3)cc1` [Compound 7e, (3R,7aR)-3-((1H-indol-3-yl)methyl)-7a-(p-tolyl)tetrahydropyrrolo[2,1-b]oxazol-5(6H)-one]: the “% CV at 100 µM” value is listed as 14 ± 2%. Regarding `O=C1CC[C@]2(c3ccc(-c4ccc(CO)cc4)cc3)OC[C@@H](Cc3c[nH]c4ccccc34)N12` [Compound 7q, (3R,7aR)-3-((1H-indol-3-yl)methyl)-7a-(4’-(hydroxymethyl)-[1,1’-biphenyl]-4-yl)tetrahydropyrrolo[2,1-b]oxazol-5(6H)-one], the viability at 50 µM came out at 55 ± 1%. As to `Cc1ccc([C@@]23CCC(=O)N2[C@@H](Cc2c[nH]c4ccccc24)CO3)cc1` [Compound 8e, (3S,7aS)-3-((1H-indol-3-yl)methyl)-7a-(p-tolyl)tetrahydropyrrolo[2,1-b]oxazol-5(6H)-one], the “% CV at 100 µM” value came out at 60 ± 3%. As to `COc1ccc([C@@]23CCC(=O)N2[C@@H](Cc2c[nH]c4ccccc24)CO3)cc1` [Compound 8f, (3S,7aS)-3-((1H-indol-3-yl)methyl)-7a-(4-methoxyphenyl)tetrahydropyrrolo[2,1-b]oxazol-5(6H)-one], the “% CV at 100 µM” value stood at 30 ± 4%. Take `CC1CC(=O)N2C(Cc3c[nH]c4ccccc34)COC12c1ccc(Cl)cc1` (stereo not drawn) [Compound 7j]: the viability at 50 µM stood at 8%.
